Results published in patent US10947252B2, “Inhibitors of KEAP1-Nrf2 protein-protein interaction” (Janssen Pharmaceutica NV, priority 2018, dated 2021).

Key:
[1] = target: Kelch domain of human KEAP1 (321-624 aa) (Homo sapiens (Human), UniProt Q14145); assay: KEAP1 KELCH ThermoFluor binding assay; conditions: KEAP Kelch […], 1,8-ANS, pH 7.0, average of results obtained, read-out: Tf Kd;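 further: Ligand-induced melting temperature shift of E. coli-expressed KEAP1 Kelch protein, Kd estimated from concentration-response curves of ΔTm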
Sequence of Kelch domain of human KEAP1 (321-624 aa) (Q14145 321-624): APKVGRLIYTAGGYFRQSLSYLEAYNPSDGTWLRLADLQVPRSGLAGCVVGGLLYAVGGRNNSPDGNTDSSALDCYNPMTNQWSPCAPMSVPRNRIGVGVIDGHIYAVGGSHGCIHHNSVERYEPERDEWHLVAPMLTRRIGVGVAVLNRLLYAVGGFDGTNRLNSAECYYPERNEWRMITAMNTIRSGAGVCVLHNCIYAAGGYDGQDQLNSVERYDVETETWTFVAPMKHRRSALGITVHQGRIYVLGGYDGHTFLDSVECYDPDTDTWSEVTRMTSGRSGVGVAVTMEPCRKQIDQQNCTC

[2] = system: Glo-Response ARE-luc2P HEK293 cell line; assay: ARE luciferase reporter cell-based assay; conditions: Homo sapiens, HEK293, 24 h, average of results obtained;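 further: luciferase signal tracks Nrf2 activation of the ARE once compounds disrupt KEAP1-Nrf2 binding, read with One-Glo reagent, DMSO serving as low control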

Compound	Kd [1]	EC50 [2]
Cc1ccc([C@@H](c2ccn3c(C(F)(F)F)nnc3c2C)C(C)(C)C(=O)O)cc1CN1CC2(CCOCC2)Oc2nc(CCC(=O)NC3CCC3)ccc2S1(=O)=O (single isomer, unassigned) [Example 605, (*S)-3-(3-((7′-(3-Cyclobutylamino-3-oxopropyl)-1′,1′-dioxido-2,3,5,6-tetrahydrospiro[pyran-4,4′-pyrido[2,3-b][1,4,5]oxathiazepin]-2′(3′H)-yl)methyl)-4-methylphenyl)-2,2-dimethyl-3-(8-methyl-3-(trifluoromethyl)-[1,2,4]triazolo[4,3-a]pyridine-7-yl)propanoic Acid]	< 1 nM	109 nM
Cc1cnc2c(c1)S(=O)(=O)N(Cc1cc([C@H](CC(=O)O)c3ccn4c(C(F)F)nnc4c3C)ccc1C)CC1(CC1)O2 (single isomer, unassigned) [Example 536, (*S)-3-(3-(Difluoromethyl)-8-methyl-[1,2,4]triazolo[4,3-a]pyridin-7-yl)-3-(4-methyl-3-((8′-methyl-1′,1′-dioxidospiro[cyclopropane-1,4′-pyrido[2,3-b][1,4,5]oxathiazepin]-2′(3′H)-yl)methyl)phenyl)propanoic Acid]	< 1 nM	59.7 nM
Cc1cnc2c(c1)S(=O)(=O)N(Cc1cc(C(CC(=O)O)c3ccn4c(C(F)F)nnc4c3C)ccc1C)CC1(CC1)O2 (stereo not drawn) [Example 535, 3-(3-(Difluoromethyl)-8-methyl-[1,2,4]triazolo[4,3-a]pyridin-7-yl)-3-(4-methyl-3-((8′-methyl-1′,1′-dioxidospiro[cyclopropane-1,4′-pyrido[2,3-b][1,4,5]oxathiazepin]-2′(3′H)-yl)methyl)phenyl)propanoic Acid]	< 1 nM	146 nM
Cc1ccc(C(CC(=O)O)c2ccn3c(C(F)(F)F)nnc3c2C)cc1CN1C[C@@H]2CN(C)CCN2c2ncccc2S1(=O)=O (mixture of isomers) [Example 177, (R/S)-3-(4-Methyl-3-(((*S)-9-methyl-5,5-dioxido-7,7a,8,9,10,11-hexahydro-6H-pyrazino[2,1-d]pyrido[2,3-f][1,2,5]thiadiazepin-6-yl)methyl)phenyl)-3-(8-methyl-3-(trifluoromethyl)-[1,2,4]triazolo[4,3-a]pyridin-7-yl)propanoic Acid]	49 nM	1390 nM
Cc1ccc(C(CC(=O)O)c2ccc3c(nnn3CC3CC3)c2C)cc1CN1C[C@@]2(C)CCCN2c2ncccc2S1(=O)=O (stereo in doubt) [Example 80, 3-(1-(Cyclopropylmethyl)-4-methyl-1H-benzo[d][1,2,3]triazol-5-yl)-3-(4-methyl-3-(((*R)-7a-methyl-5,5-dioxido-7a,8,9,10-tetrahydropyrido[2,3-f]pyrrolo[2,1-d][1,2,5]thiadiazepin-6(7H)-yl)methyl)phenyl)propanoic Acid]	8 nM	306 nM
CCn1nnc2c(C)c([C@H](c3ccc(C)c(CN4CC5(CCOCC5)Oc5ncc(C)cc5S4(=O)=O)c3)C(C)(C)C(=O)O)ccc21 (single isomer, unassigned) [Example 420, (*S)-3-(1-ethyl-4-methyl-1H-benzo[d][1,2,3]triazol-5-yl)-2,2-dimethyl-3-(4-methyl-3-((8′-methyl-1′,1′-dioxido-2,3,5,6-tetrahydrospiro[pyran-4,4′-pyrido[2,3-b][1,4,5]oxathiazepin]-2′(3′H)-yl)methyl)phenyl)propanoic Acid]	268 nM	57.8 nM
Cc1ccc([C@@H](CC(=O)O)c2ccn3c(C(F)(F)F)nnc3c2C)cc1CN1C[C@@H]2CCN2c2ncccc2S1(=O)=O (single isomer, unassigned) [Example 293, (*R)-3-(3-(((*S)-5,5-Dioxido-7,7a, 8,9-tetrahydro-6H-azeto[2,1-d]pyrido[2,3-f][1,2,5]thiadiazepin-6-yl)methyl)-4-methylphenyl)-3-(8-methyl-3-(trifluoromethyl)-[1,2,4]triazolo[4,3-a]pyridin-7-yl)propanoic Acid]	2.55 nM	899 nM
CCc1nnc2c(C)c(C(CC(=O)O)c3ccc(C)c(CN4C[C@H]5CCCN5c5ncccc5S4(=O)=O)c3)ccn12 (stereo partly drawn) [Example 281, 3-(3-(((R)-5,5-Dioxido-7a,8,9,10-tetrahydropyrido[2,3-f]pyrrolo[2,1-d][1,2,5]thiadiazepin-6(7H)-yl)methyl)-4-methylphenyl)-3-(3-ethyl-8-methyl-[1,2,4]triazolo[4,3-a]pyridin-7-yl)propanoic Acid]	< 1 nM	480 nM
CCn1nnc2c(C)c([C@H](CC(=O)O)c3ccc(C)c(CN4C[C@H]5CCCCN5c5ncccc5S4(=O)=O)n3)ccc21 (single isomer, unassigned) [Example 305, (*S)-3-(6-(((*R)-5,5-Dioxido-7,7a,8,9,10,11-hexahydro-6H-dipyrido[2,1-d:2′,3′-][1,2,5]thiadiazepin-6-yl)methyl)-5-methylpyridin-2-yl)-3-(1-ethyl-4-methyl-1H-benzo[d][1,2,3]triazol-5-yl)propanoic Acid]	< 1 nM	1.7 nM
Cc1ccc([C@@H](c2ccn3c(C(F)(F)F)nnc3c2C)C(C)(C)C(=O)O)cc1CN1CC2(CCOCC2)Oc2nc(OCCCO)ccc2S1(=O)=O (single isomer, unassigned) [Example 50, (*S)-3-(3-((7′-(3-Hydroxypropoxy)-1′,1′-dioxido-2,3,5,6-tetrahydrospiro[pyran-4,4′-pyrido[2,3-b][1,4,5]oxathiazepin]-2′(3′H)-yl)methyl)-4-methylphenyl-2,2′-dimethyl-3-(8-methy-3-trifluoromethyl)-[1,2,4]triazolo[4,3-a]pyridine-7-yl)propanoic Acid]	< 1 nM	52 nM
Cc1ccc([C@@H](CC(=O)O)c2ccc3c(nnn3CC3CC3)c2C)cc1CN1C[C@@]2(C)CCCN2c2ncccc2S1(=O)=O (single isomer, unassigned) [Example 81, (*R)-3-(1-(Cyclopropylmethyl)-4-methyl-1H-benzo[d][1,2,3]triazol-5-yl)-3-(4-methyl-3-(((*R)-7a-methyl-5,5-dioxido-7a,8,9,10-tetrahydropyrido[2,3-f]pyrrolo[2,1-d][1,2,5]thiadiazepin-6(7H)-yl)methyl)phenyl)propanoic Acid]	5.5 nM	176 nM
Cc1ccc([C@@H](CC(=O)O)c2ccc3c(nnn3C3CC3)c2C)cc1CN1C[C@H]2CCCN2c2ncccc2S1(=O)=O (single isomer, unassigned) [Example 211, (*R)-3-(1-Cyclopropyl-4-methyl-1H-benzo[d][1,2,3]triazol-5-yl)-3-(3-(((R)-5,5-dioxido-7a,8,9,10-tetrahydropyrido[2,3-f]pyrrolo[2,1-d][1,2,5]thiadiazepin-6(7H)-yl)methyl)-4-methylphenyl)propanoic Acid]	1.1 nM	42 nM
CC[C@@H]1CN(Cc2cc(C(CC(=O)O)c3ccn4c(C(F)(F)F)nnc4c3C)ccc2C)S(=O)(=O)c2cccnc2O1 (mixture of isomers) [Example 188, (R/S)-3-(3-(((R)-4-ethyl-1,1-dioxido-3,4-dihydro-2H-pyrido[2,3-b][1,4,5]oxathiazepin-2-yl)methyl)-4-methylphenyl)-3-(8-methyl-3-(trifluoromethyl)-[1,2,4]triazolo[4,3-a]pyridin-7-yl)propanoic acid]	< 1 nM	17 nM
Cc1cnc2c(c1)S(=O)(=O)N(Cc1cc([C@H](c3ccn4c(C(F)(F)F)nnc4c3C)C(C)(C)C(=O)O)ncc1C)CC1(CC1)O2 (single isomer, unassigned) [Example 589, (*R)-2,2-Dimethyl-3-(8-methyl-3-(trifluoromethyl)-[1,2,4]triazolo[4,3-a]pyridin-7-yl)-3-(5-methyl-4-((8′-methyl-1′,1′-dioxidospiro[cyclopropane-1,4′-pyrido[2,3-b][1,4,5]oxathiazepin]-2′(3′H)-yl)methyl)pyridin-2-yl)propanoic Acid]	1450 nM	1970 nM
Cc1ccc([C@@H](CC(=O)O)c2ccn3c(C(F)(F)F)nnc3c2C)nc1CN1C[C@@H]2CCCCN2c2ncc(Cl)cc2S1(=O)=O (single isomer, unassigned) [Example 519, (*S)-3-(6-(((*S)-3-Chloro-5,5-dioxido-7,7a,8,9,10,11-hexahydro-6H-dipyrido[2,1-d:2′,3′-f][1,2,5]thiadiazepin-6-yl)methyl)-5-methylpyridin-2-yl)-3-(8-methyl-3-(trifluoromethyl)-[1,2,4]triazolo[4,3-a]pyridin-7-yl)propanoic Acid]	< 1 nM	16 nM
CC[C@@H]1CN(Cc2cc(C(CC(=O)O)c3ccn4c(C(F)(F)F)nnc4c3)ccc2C)S(=O)(=O)c2cccnc2O1 (stereo partly drawn) [Example 256, 3-(3-(((R)-4-Ethyl-1,1-dioxido-3,4-dihydro-2H-pyrido[2,3-b][1,4,5]oxathiazepin-2-yl)methyl)-4-methylphenyl)-3-(3-(trifluoromethyl)-[1,2,4]triazolo[4,3-a]pyridin-7-yl)propanoic Acid]	< 1 nM	379 nM
Cc1ccc([C@H](CC(=O)O)c2ccn3c(C(F)F)nnc3c2C)cc1CN1C[C@@H]2COCCN2c2ncccc2S1(=O)=O (single isomer, unassigned) [Example 458, (*S)-3-(3-(Difluoromethyl)-8-methyl-[1,2,4]triazolo[4,3-a]pyridin-7-yl)-3-(3-(((*R)-5,5-dioxido-7a,8,10,11-tetrahydro-[1,4]oxazino[3,4-d]pyrido[2,3-f][1,2,5]thiadiazepin-6(7H)-yl)methyl)-4-methylphenyl)propanoic Acid]	< 1 nM	276 nM
Cc1cnc2c(c1)S(=O)(=O)N(Cc1nc(C(CC(=O)O)c3ccn4c(C(F)(F)F)nnc4c3C)ccc1C)C[C@@H]1CCCCN21 (stereo in doubt) [Example 487, 3-(8-Methyl-3-(trifluoromethyl)-[1,2,4]triazolo[4,3-a]pyridin-7-yl)-3-(5-methyl-6-(((*S)-3-methyl-5,5-dioxido-7,7a,8,9,10,11-hexahydro-6H-dipyrido[2,1-d:2′,3′-f][1,2,5]thiadiazepin-6-yl)methyl)pyridin-2-yl)propanoic Acid]	< 1 nM	18.3 nM
